Data taken from patent publication US20240207265A1, “TREATMENT OF CNS DISEASES WITH sGC STIMULATORS” (Tisento Therapeutics Inc., priority 2021, published 2024).

Assays:
[1] = Microdialysis experiments in rat brain; assay type: in vivo; settings: 3 mg/kg PO as sodium salt, Sprague Dawley rats
Experimental: The goal of the current study was to evaluate levels of sGC stimulators of the invention in the hippocampus and striatum interstitial fluid (ISF), as well as in the circulating plasma after administration to Sprague Dawley male rats. To do so, rats were implanted with microdialysis probes in the hippocampus and striatum and a jugular vein cannula (JVC). After the collection of one pre-dose ISF sample, animals were dosed with sGC stimulator. Samples were collected for 24 hours through a hippocampal and striatal probe as well as serial plasma sampling collected through the JVC after administration. All collected samples were stored at −80° C. waiting for analysis on compound levels in the dialysate.
Five Sprague Dawley rats pre-cannulated with a jugular vein cannula were used for this study. Upon arrival, rats were group-housed in polycarbonate cages (2-3/cage) and acclimated for at least 3 days prior to commencing studies. Animals were housed in a 12 hr light/dark cycle with room temperature maintained at 22+2° C. and approximately 50% humidity and received food and water ad libitum. Rats were tracked via unique identifying numbers. Experiments were conducted in accordance with protocols approved by the Institutional Animal Care and Use Committee of Charles River Laboratories South San Francisco. […]

[2] = tested on: MPTP-induced cognitive deficits; assay: Chronic low dose MPTP-lesioned macaque model of cognitive deficits in Parkinson's disease; assay type: in vivo, cynomolgus macaques; settings: 3.0 mg/kg oral daily monotherapy
From the text: This study was a non-GLP study in the chronic low dose MPTP-lesioned macaque model of Parkinson's disease. This model has been described in the literature (https://www.ncbi.nlm.nih.gov/pmc/articles/PMC3282499/). The study was designed to assess effects of Compound I-14, administered as monotherapy, on performance of the following cognitive tasks: variable delayed response (VDR), continuous performance (CPT), visual discrimination reversal learning (SDR) and object retrieval (OR). The study was conducted in animals that had received prior treatment with low doses of MPTP and were known to have difficulties in the performance of the above-mentioned tasks. These studies utilised four male cynomolgus macaques with MPTP-induced cognitive deficits. The study had 4 parts. The first part of the study was to collect baseline data from the four animals on the four tasks to be studied. The second part of the study was to administer vehicle (sterile, filtered distilled water) over a 16 day period and collect vehicle data on the four tasks once per week for two weeks. In the third part of the study, Compound I-14 was administered orally daily for five days and then data were collected on the four tasks once per week for two weeks, with continued daily administration of Compound I-14 (3.0 mg/kg) 2 hrs. prior to each days testing. In the final part of the study, there was a 9 day washout period and then data were collected on the four tasks once per week for two weeks. One dose of Compound I-14 was assessed as monotherapy (3.0 mg/kg) following five days of pre-dosing and daily dosing for two weeks. The effects of the treatment on cognitive performance was assessed 2 hrs. after daily drug administration and during drug washout. MPTP-HCl was administered by i.v. injection at doses ranging from 0.05 mg/kg to 0.30 mg/kg, 2 to 3 times per week for several months. MPTP administration continued until cognitive deficits appeared with minimal/mild parkinsonian motor impairment. Animals were considered “cognitively impaired” if they show at least a 15% decrease in cognitive task performance from pre-MPTP baseline levels. Because response to MPTP is somewhat idiosyncratic, MPTP was administered to effect (i.e., development of cognitive deficits and then development of motor deficits), rather than given for a particular duration of exposure or a particular cumulative dose of MPTP. […] The measure recorded for each session is: 1) total number of trials needed to learn the initial discrimination (i.e. reach the specified criterion of 14/16 correct, and; 2) total number of trials needed to learn (i.e., reach the same criterion as mentioned above) the reversal in which the previously negative (unrewarded) stimulus is now the positive (rewarded) stimulus (i.e., reach criterion). […]

For `Cc1cc(F)c(Cc2nc(-c3ncc(F)c(O)n3)cn3ccnc23)cc1F` [Compound I-14, 5-fluoro-2-(8-(2,5-difluoro-4-methylbenzyl)imidazo[1,2-a]pyrazin-6-yl)pyrimidin-4-ol], the “side effects of the treatment” value [1] was “No obvious side effects”, the Simple discrimination performance [2] was “not significantly changed” and the “number of trials needed to reach criterion to learn the discrimination reversal” value [2] was “significantly reduced”. The “animals failing to learn the discrimination reversal” value ([2]; four animals) was “none of the animals failed to learn the reversal” and the “SDR (discrimination reversal) performance” value ([2]; tested 2 hrs after dosing) was “significantly improved performance”.
